Data: patent publication US8889902B2, “Acetylsalicylic acid salts” (priority 2009, dated 2014)

Legend:
[1] = system: Wistar rats; assay: Acute toxicity of MASA to rats p.o.; format: in vivo; conditions: P = 0.05
Experimental: (§1) The acute toxicity of MASA was determined on Wistar rats and ICR mice by p.o. introduction.
(§2) Male IRC mice with body mass of 20-22 g and Wistar rats with body mass of 200-230 g were used. For determining the acute toxicity each dose was given to 6 animals, each next dose was increased by 500 mg/kg. LD50 was calculated after Karber by the method of Akhila J S et al, Current Sci 2007; 93:917-920 with modification for determining the dose confidence interval (Turner R In Screening Methods in Pharmacology, Acad. Press, New York, 1965, 61-63).
(§3) LD50 was calculated as follows: LD50=Least dose lethal to all in a group−Σ(a×b)/N N—number of animals in each group a—the dose difference b—the mean mortality (lethality in 2 neighbouring groups/2)
(§4) MASA was dissolved ex tempore in 0.2% agar-agar and introduced per os through catheter into stomach. […] Animals were observed till the Day 10 after introduction.

[2] = system: ICR mice; assay: Acute toxicity of MASA to mice p.o.; format: in vivo; conditions: P = 0.05
Experimental: as §1, §2, §3, §4

[3] = background statement; cited from earlier work
[4] = system: Wistar rats; conditions: rats p.o., cited from earlier work

Row | Structure (SMILES) | confidence interval for LD50 [1] | confidence interval for LD50 [2] | solubility in water [3] | LD50 ([4]; given by Bayer AG) [mg/kg] | Acute toxicity (LD50) ([4]; given by Boehringer Ingelheim, Acros Chemicals, Sigma-Aldrich) [mg/kg]
1 | CC(=O)Oc1ccccc1C(=O)[O-].C[N+](C)(C)NCCC(=O)O [MASA, 3-(trimethylammonioamino)propanoate Acetylsalicylic Acid Addition Salt] | Factor f at P = 0.05 for this experiment is 1.308, therefore the confidence interval for LD50 is 1720 ÷ 2944 (mg/kg). | Factor f at P = 0.05 for this experiment is 1.32, therefore the confidence interval for LD50 is 1642-2860 (mg/kg). |  |  | 
2 | CC(=O)Oc1ccccc1C(=O)O [ASA, acetylsalicylic acid] |  |  | about 0.3% | > 1100 | 200
